In US6555134B1, “Synergistic mixtures of garlic and lycopene for preventing LDL oxidation” (Lycored Natural Products Industries Ltd., priority 1998, dated 2003):
Where two headings read alike, the source gives them in different places. Marks after values point to notes of the source that are not given here.

Key:
LDL = assay: copper ions-induced LDL oxidation (TBARS, lipids); format: biochemical, human; conditions: Experiment 1; lycopene 5 μg/ml
Method: LDL was separated from human plasma by discontinuous density gradient ultracentrifugation and dialyzed against saline: EDTA (1 mM). Before oxidation LDL was diluted in PBS to 100 ug protein/ml, and dialyzed overnight against PBS at 4° C. LDL was oxidized by a metal ion dependent mechanism, by incubation for 24 hours at 37° C. with 5 uM CuSO4 freshly prepared as well as by determination of the thiobarbituric acid reactive substance (TBARS). Lycopene, as well as tomato oleoresin containing 5% lycopene, were dissolved in tetrahydrofuran (THF), 0.5 mg/ml stock solution for pure lycopene, and 10 mg/ml stock solution for the oleoresin. Garlic powder was extracted with water, dried, and resolubilized in water at a concentration of 0.25 mg of allicin equivalentsml for a stock solution. The synergistic effects of a combination of garlic and lycopene on copper ions-induced LDL oxidation was studied. Details are shown in Table 1, affording the individual components of the Abbott Equation used to calculate synergism as follows: [formula] where A=Percent Control of garlic alone B=Percent Control of Lycopene alone where IF=Actual control in Percent IE=Expected control in Percent Following the method of Experiment 1, the synergistic effect of a combination of garlic and lycopene as in Experiment 1; but using tomato oleoresin was run.

blood lymphocytes = conditions: NO2 radical damage; cited from earlier work
Cultured rat hepatocytes = conditions: cited from earlier work
fatty acid synthetase = target: T1, fatty acid synthetase (Rattus norvegicus, UniProt P12785); conditions: at very high concentration; cited from earlier work
T1 construct: Cultured rat hepatocytes; host or cells: primary rat hepatocyte cultures
T1 sequence (P12785 whole entry): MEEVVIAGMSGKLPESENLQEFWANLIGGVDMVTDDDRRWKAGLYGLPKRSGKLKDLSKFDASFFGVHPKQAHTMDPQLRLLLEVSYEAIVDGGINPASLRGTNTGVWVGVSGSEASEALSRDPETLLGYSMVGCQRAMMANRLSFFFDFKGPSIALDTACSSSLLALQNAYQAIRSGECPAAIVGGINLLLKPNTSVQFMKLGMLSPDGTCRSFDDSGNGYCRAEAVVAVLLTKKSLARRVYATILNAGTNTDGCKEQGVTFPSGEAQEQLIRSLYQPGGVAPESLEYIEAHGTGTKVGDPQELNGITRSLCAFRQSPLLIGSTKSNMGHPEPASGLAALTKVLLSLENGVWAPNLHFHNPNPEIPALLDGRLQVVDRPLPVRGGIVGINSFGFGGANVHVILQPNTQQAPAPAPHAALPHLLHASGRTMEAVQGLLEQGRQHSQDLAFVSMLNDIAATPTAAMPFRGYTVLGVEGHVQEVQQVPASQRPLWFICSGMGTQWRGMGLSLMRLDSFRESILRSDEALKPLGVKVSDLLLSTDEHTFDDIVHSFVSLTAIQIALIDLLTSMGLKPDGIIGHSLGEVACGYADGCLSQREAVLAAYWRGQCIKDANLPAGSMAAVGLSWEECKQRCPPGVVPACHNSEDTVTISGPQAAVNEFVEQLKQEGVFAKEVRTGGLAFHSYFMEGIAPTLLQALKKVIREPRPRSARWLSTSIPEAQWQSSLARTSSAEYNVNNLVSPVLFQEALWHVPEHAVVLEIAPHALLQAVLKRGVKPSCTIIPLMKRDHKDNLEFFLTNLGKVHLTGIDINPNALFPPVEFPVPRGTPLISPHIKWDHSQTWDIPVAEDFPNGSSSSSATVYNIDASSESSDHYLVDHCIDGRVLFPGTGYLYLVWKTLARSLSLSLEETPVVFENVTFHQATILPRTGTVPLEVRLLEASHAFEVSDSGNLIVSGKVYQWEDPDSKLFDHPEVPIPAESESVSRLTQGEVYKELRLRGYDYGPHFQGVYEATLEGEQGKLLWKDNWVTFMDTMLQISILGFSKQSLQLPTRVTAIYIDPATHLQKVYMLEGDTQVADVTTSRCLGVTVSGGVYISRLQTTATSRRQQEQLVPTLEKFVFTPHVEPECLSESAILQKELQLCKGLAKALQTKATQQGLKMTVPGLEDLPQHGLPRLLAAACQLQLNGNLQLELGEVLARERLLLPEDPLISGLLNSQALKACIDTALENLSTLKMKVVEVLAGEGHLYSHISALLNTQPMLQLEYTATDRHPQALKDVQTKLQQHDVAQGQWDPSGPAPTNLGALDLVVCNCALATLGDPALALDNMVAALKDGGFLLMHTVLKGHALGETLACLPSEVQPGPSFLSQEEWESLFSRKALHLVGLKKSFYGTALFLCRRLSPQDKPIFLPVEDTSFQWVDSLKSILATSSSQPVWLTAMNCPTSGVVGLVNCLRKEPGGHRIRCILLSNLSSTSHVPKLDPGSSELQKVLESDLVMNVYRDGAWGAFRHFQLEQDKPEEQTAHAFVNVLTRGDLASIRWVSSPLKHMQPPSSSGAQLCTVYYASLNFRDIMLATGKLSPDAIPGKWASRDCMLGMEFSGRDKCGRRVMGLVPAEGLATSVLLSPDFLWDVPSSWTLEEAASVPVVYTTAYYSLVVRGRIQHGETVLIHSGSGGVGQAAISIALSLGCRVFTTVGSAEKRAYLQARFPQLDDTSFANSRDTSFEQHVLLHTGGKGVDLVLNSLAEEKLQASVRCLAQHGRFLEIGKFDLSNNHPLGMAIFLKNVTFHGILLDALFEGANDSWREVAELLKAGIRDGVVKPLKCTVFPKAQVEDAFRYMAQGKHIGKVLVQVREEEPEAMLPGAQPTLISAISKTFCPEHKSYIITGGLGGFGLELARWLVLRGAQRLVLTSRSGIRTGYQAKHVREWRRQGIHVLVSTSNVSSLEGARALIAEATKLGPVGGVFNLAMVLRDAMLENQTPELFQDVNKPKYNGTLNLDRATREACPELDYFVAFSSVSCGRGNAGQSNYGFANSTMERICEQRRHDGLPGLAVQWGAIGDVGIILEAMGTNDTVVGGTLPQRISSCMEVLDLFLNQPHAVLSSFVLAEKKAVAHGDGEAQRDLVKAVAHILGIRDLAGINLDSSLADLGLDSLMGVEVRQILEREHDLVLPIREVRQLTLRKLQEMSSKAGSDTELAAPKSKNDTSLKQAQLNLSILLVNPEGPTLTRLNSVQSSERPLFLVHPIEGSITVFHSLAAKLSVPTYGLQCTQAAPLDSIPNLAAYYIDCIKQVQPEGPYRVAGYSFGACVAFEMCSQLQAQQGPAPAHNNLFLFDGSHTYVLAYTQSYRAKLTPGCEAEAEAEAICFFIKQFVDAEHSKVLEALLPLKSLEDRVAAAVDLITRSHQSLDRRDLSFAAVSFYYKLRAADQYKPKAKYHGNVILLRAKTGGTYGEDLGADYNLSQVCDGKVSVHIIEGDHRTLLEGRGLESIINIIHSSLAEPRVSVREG

Compound: CC(C)=CCC/C(C)=C/C=C/C(C)=C/C=C/C(C)=C/C=C/C=C(C)/C=C/C=C(C)/C=C/C=C(\C)CCC=C(C)C [Lycopene]
- B = Percent Control of Lycopene alone (LDL): 18^b Percent
- antioxidant effectiveness relative to β-carotene (blood lymphocytes): at least twice as effective

Compound: CC[C@H](C)C(=O)O[C@H]1CCC=C2C=C[C@H](C)[C@H](CC[C@@H]3C[C@@H](O)CC(=O)O3)[C@H]21 [Mevastatin]
- inhibition of cholesterol biosynthesis (Cultured rat hepatocytes; 24 h incubation, radiolabeled acetate): 90%

Compound: C=CCS[S+]([O-])CC=C (centres unmarked) [allicin]
- inhibition of cholesterol biosynthesis (Cultured rat hepatocytes; concentration corresponding to its content in the extracts, before or after incubation with alliinase): does not exert any inhibition
- inhibition of fatty acid synthetase (fatty acid synthetase): inhibited
